According to article PMC5578999, “Novel quinolone chalcones targeting colchicine-binding pocket kill multidrug-resistant cancer cells by inhibiting tubulin activity and MRP1 function” (Scientific Reports, 2017):

Assays:
purified porcine tubulin [1] = molecular target: T1, purified porcine tubulin (Sus scrofa, UniProt P02554); assay: In vitro microtubule assembly (light scattering) assay; format: biochemical; details: 3 µmol/L CTR-17, 1 µmol/L CTR-20; 340 nm, one hour, 37 °C
T1 construct: purified porcine tubulin (T240, Cytoskeleton); purchased Cytoskeleton T240
Description: Figure 5 CTRs inhibited microtubule polymerization by binding to tubulin through the colchicine-binding pocket. (a) CTRs inhibited microtubule polymerization in a similar manner to that of nocodazole. Purified porcine tubulin and 1.0 mmol/L GTP were added to reaction mixture (37 °C) containing 10 µmol/L paclitaxel (Tax), 3 µmol/L CTR-17, 1 µmol/L CTR-20, or 5 µmol/L nocodazole (Noco). Polymerization of microtubule was monitored every minute for one hour at 340 nm by spectrophotometry. Note that G-PEM buffer contains 400 µg of purified tubulin. (b) CTR-20 (and CTR-17; Supplementary Fig. S12) bound tubulin. CTR-20 quenched the intrinsic tryptophan fluorescence of tubulin in a dose-dependent manner. The changes in fluorescence intensity (∆F) were plotted against drug concentrations to determine the dissociation constant. […] CTR-20 (and CTR-17; Supplementary Fig. S12) depressed the fluorescence of the colchicine-tubulin complex in a dose-dependent manner. The fluorescence intensity of the final tubulin complex was used to determine the inhibitory concentration (Ki) using a modified Dixon plot. The fluorescence intensity was normalized by subtracting any intrinsic fluorescence of CTR-20 at given doses from that of the complex. “F” is the fluorescence of the CTR-colchicine-tubulin complex, and “F0” is the fluorescence of the colchicine-tubulin complex. […]

purified porcine tubulin [2] = molecular target: T1, purified porcine tubulin; assay: Intrinsic tryptophan fluorescence quenching of tubulin; format: binding
Description: A two-step extraction procedure was used to differentially extract tubulin heterodimers and microtubules from sham-treated cells or those treated with compounds as described previously. To determine the binding ability of CTR compounds to tubulin, the changes in the intrinsic tryptophan fluorescence of purified porcine tubulin (T240, Cytoskeleton) was measured as described previously. GraphPad Prism software was used to determine the dissociation constant of CTRs bound to tubulin, and the following formula was used: ∆F=∆Fmax×C/Kd+C Where, ΔF is the changes in the fluorescence intensity of the tubulin when bound by CTR; ΔFmax is the maximum change in the fluorescence intensity; C is compound concentration; and Kd is the dissociation constant of the compound. The experiment was repeated five times.

[3] = Serum ALT and AST, ATH490 mice; details: 30 days, paclitaxel 10 mg/kg, CTR 30 mg/kg, combinations 5 + 15 mg/kg; for ALT: sham 64.03± 4.04; for AST: sham 112.46 ± 4.74
Description: For paclitaxel treatments, 40 mg/ml stock solution of paclitaxel (Sigma, MO) was prepared in DMSO. […] Alanine transaminase (ALT, SUP6001-c) and Aspartate transaminase (AST, SUP6002-c) color endpoint assay kits were purchased from ID Labs (London, Ontario, Canada).
Athymic mice engrafted with tumor cells were used to determine antitumor activity. […] When tumor size reached 5–6 mm in diameter (n = 4–5 per group), mice were randomly assigned into several groups and vehicle-treated or treated with drug(s). […] Animals were monitored for food and water consumption every day, and their body weights and tumor volumes were measured twice per week. Tumor volumes were measured with a digital caliper and were determined by the following formula: ½ length × width^2. Blood samples were collected via cardiac puncture and processed for ALT and AST measurements. The animals were then immediately euthanized by carbon dioxide.
carri ed out using GraphP ad Prism software. All values are pr esented as mean±S.E.M.
Comparison between each group was made b y p values determined using one-wa y ANOVA. The
p value of <0.05 is consi dered to be statisticall y significant. Each organ weight was norm alized
with total body mass (BM) as expressed in %.
ATH490 athymic mice were vehicle -treated (Sham) or treated with indicated compounds
and doses for 30 da ys , followed by harvesting liver ( and other o r gans ; Fi g. 7d) for an al ysis of
their toxic effects . […] ( b) Blood sera w erecollected from mice
treated with indicated compounds and doses, and then examinedthe levels of ALT and AST to
gain insight into liver toxicity.
All values ar e present ed as mean±S.E .M.

[4] = Serum ALT and AST, CD1 mice; details: paclitaxel 10 mg/kg, CTR 30 mg/kg, combinations paclitaxel 5 + CTR 15 mg/kg, vehicle 38.76 ± 0.17, in U/L (unit assumed)
Description: Alanine transaminase (ALT, SUP6001-c) and Aspartate transaminase (AST, SUP6002-c) color endpoint assay kits were purchased from ID Labs (London, Ontario, Canada).
Blood samples were collected via cardiac puncture and processed for ALT and AST measurements. The animals were then immediately euthanized by carbon dioxide.

[5] = Body and organ weights, side effects; details: CTR-17 30 mg/kg, CTR-20 30 mg/kg, paclitaxel 10 mg/kg; CD-1 or ATH490 strains
Description: Athymic mice engrafted with tumor cells were used to determine antitumor activity. […] When tumor size reached 5–6 mm in diameter (n = 4–5 per group), mice were randomly assigned into several groups and vehicle-treated or treated with drug(s). […] Animals were monitored for food and water consumption every day, and their body weights and tumor volumes were measured twice per week. Tumor volumes were measured with a digital caliper and were determined by the following formula: ½ length × width^2. Blood samples were collected via cardiac puncture and processed for ALT and AST measurements. The animals were then immediately euthanized by carbon dioxide. Tumors and vital organs (spleen, kidney, liver and lung) were harvested and fixed in 10% buffered formalin at 4 °C overnight before being processed for a paraffin embedding. The paraffin-embedded blocks were then sectioned to 4–5 µm thick. Each section was stained with haematoxylin and eosin (H&E).

[6] = tested on: non-cancerous cells (MCF 10A and 184B5); assay: SRB cell viability, cancer vs non-cancer cells; format: cell-based; details: cancer cells vs MCF 10A and 184B5
Description: and MCF10AT1 cells were cultured in Dulbecco's Modified Eagle's Medium/Ham's Nutrient Mixture F-12 (DME/F12) supplemented with 10% (volume/volume) FBS , 100 μg/ml streptom ycin and 100 units/ml penicillin, antim ycotic solution, 0.5 μg/ml hydrocortisone, 10 ng/ml human epiderm al growth factor (hEGF) and 5 μg/ml insulin, whereas MCF10CA1a cell line was cultured in DM EM supplemented with 10% FBS (volume/volume). […]
Dr. Susan Cole (Queen’s Universit y, Kingston, Ontario, Canada). The pacl itaxel-resistant MDA-MB-231TaxR cell line was generated in house b y culturing MDA-MB-231 cells (purchased from ATCC and authen ticated ) in the gradual l y incr easi ng con centr ations of pacl itax el until the concentration reached to 100 nM. Cell line authentication was carried out by Genetica DNA Laboratories (Burlington, NC) using a short tandem repeat (STR) profiling method (March 2015; […]
(§1) Cell viability, com binational i ndex and cell synchronization
Cell viability and proliferation were ex amined using a s ulforhodamine B (SRB) assa y as described previousl y (Hu et al., 2008). IC 50 values were calculat ed from si gmoidal dose-response cu rves gen erat ed b y at least two indepen dent ex periments , with each quadruplicate samples, using GraphPad Prism v.5.04 software (GraphPad Software, Inc, La J olla, CA). […]

H69AR = assay: SRB cell viability, multidrug-resistant cells; format: cell-based; details: for IC50: Homo sapiens, H69AR
Description: Cell line authentication was carried out by Genetica DNA
as §1
Cell viability and proliferation were ex amined using a s ulforhodamine B (SRB) assa y as […]
IC 50 values were calculat ed from si gmoidal dose-response cu rves gen erat ed b y at least two indepen dent ex periments , with each quadruplicate samples, using GraphPad Prism v.5.04 software (GraphPad Software, Inc, La J olla, CA). […]
(sham) or presence of compound(s). […]

T1 sequence (P02554 whole entry): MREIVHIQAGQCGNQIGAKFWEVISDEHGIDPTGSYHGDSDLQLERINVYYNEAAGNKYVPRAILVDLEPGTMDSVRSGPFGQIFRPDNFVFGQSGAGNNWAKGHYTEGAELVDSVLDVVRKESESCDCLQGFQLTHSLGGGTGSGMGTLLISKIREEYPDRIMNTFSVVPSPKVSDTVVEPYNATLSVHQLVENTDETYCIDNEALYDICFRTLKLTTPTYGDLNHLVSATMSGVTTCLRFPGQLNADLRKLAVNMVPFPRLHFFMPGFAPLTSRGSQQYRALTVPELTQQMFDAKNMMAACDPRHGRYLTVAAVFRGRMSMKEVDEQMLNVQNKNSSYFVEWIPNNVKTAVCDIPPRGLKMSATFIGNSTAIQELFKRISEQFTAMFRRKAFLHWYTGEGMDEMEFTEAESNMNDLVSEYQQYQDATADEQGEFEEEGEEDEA
T1 sequence (P02550 whole entry partner): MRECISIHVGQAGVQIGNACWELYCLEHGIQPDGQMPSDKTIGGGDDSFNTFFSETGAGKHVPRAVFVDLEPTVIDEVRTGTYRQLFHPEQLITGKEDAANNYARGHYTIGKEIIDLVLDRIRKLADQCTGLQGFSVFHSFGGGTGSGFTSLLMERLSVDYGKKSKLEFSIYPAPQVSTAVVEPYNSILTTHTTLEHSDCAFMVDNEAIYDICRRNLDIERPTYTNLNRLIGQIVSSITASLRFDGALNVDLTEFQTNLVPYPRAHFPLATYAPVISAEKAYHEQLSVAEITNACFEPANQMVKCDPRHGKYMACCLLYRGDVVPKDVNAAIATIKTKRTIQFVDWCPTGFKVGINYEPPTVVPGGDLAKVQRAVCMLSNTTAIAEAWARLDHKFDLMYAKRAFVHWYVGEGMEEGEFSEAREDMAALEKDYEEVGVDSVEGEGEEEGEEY

With `COc1ccccc1C(=O)/C=C/c1cc2ccccc2[nH]c1=O` [CTR-17, (E)-3-(3-(2-Methoxyphenyl)-3-oxoprop-1-enyl)quinolin-2(1H)-one] the “effect on microtubule polymerization” value (purified porcine tubulin [1]) was “inhibit microtubule polymerization”, the Kd (purified porcine tubulin [2]) was 4.58 ± 0.95 µM and the ALT [3] was 64.67± 5.26 IU/L. The AST [3] was 114.13 ± 6.36 IU/L, the “levels of ALT and AST” value [4] was 37.02 ± 1.46 and the “side effects (changes in body and organ weights)” value [5] was “did not cause any notable side effects”. For the same molecule, the “killed cancer cells more effectively than non-cancerous cells” value [6] was 20–26 folds, the “Resistance (fold)” value (H69AR; H69AR vs SW-1271, Table S1) was 0.45 fold and the IC50 (H69AR) was 0.52 ± 0.1 µM.

For `COc1ccc2[nH]c(=O)c(/C=C/C(=O)c3ccccc3OC)cc2c1` [CTR-20, (E)-6-Methoxy-3-(3-(2-methoxyphenyl)-3-oxoprop-1-enyl) quinolin-2(1H)-one], the “effect on microtubule polymerization” value (purified porcine tubulin [1]) was “inhibit microtubule polymerization”, the Kd (purified porcine tubulin [2]) was 5.09 ± 0.49 µM and the ALT [3] was 50.50± 9.96 IU/L. For the same molecule, the AST [3] was 118.22±17.00 IU/L, the “levels of ALT and AST” value [4] was 30.43 ± 0.49 and the “side effects (changes in body and organ weights)” value [5] was “did not cause any notable side effects”. The “killed cancer cells more effectively than non-cancerous cells” value [6] was 20–26 folds and the IC50 (H69AR) was 0.13 ± 0.01 µM.
